In one test the test system is cancer cells. Kind of test: Cell viability assay, summary statements on cancer cells. It counts as cell-based. As to conditions: single mutation in TPR or Antp region of Antp-TPR.
A further test deals with Caki-1. The format is cell-based, human. The note with it: Caki-1; for Anti-cancer activity (% relative to wild-type peptide) / Decrease in cell survival rate (% relative to wild-type peptide): wild-type peptide = 100%. The protocol:
A total of 3×10^3 cells were inoculated per well on a 96 well plate and cultured in a medium containing 10% FBS for 24 hours, and incubated with 100 μl of a peptide having a gradual increase in concentration at 37° C. for 48 to 72 hours. The survival rate of the cells was measured by using WST-8 solution (Cell Count Reagent SF; Nacalai Tesque, Inc.).
Respective variant peptides were subjected to cell viability assay. Specifically, Caki-1 (American Type Culture Collection (Manassas, Va.) was inoculated in a total amount of 3×10^3 cells per well on a 96 well plate (Nunc™); the cells were cultured in a medium (DMEM (Tesque, Inc.) containing 10% FBS (fetal bovine serum; Biowest)) for 24 hours and incubated with 100 μl of a peptide having a gradual increase in concentration at 37° C. for 48 to 72 hours. The cell survival rate was measured by using WST-8 solution (Cell Count Reagent SF; Nacalai Tesque, Inc.) and compared with that of the wild-type Antp-TPR peptide.
Respective variant peptides were subjected to cell viability assay. Specifically, Caki-1 (American Type Culture Collection (Manassas, Va.) was inoculated in a total amount of 3×10^3 cells per well on a 96 well plate (Nunc™); the cells were cultured in a medium containing 10% FBS for 24 hours and incubated with 100 μl of a peptide having a gradual increase in concentration at 37° C. for 48 to 72 hours. The cell survival rate was measured by using WST-8 solution (Cell Count Reagent SF; Nacalai Tesque, Inc.) and compared with that of the wild-type Antp-TPR peptide.

Where a SMILES comes first, the peptide text is derived from it.

For `CC[C@H](C)[C@H](NC(=O)[C@H](CCCNC(=N)N)NC(=O)[C@H](C)NC(=O)[C@H](Cc1ccc(O)cc1)NC(=O)[C@H](C)NC(=O)[C@H](CCCCN)NC(=O)[C@H](CCCCN)NC(=O)[C@H](CCCCN)NC(=O)[C@H](Cc1c[nH]c2ccccc12)NC(=O)[C@H](CCCNC(=N)N)NC(=O)[C@H](CCSC)NC(=O)[C@H](CCCNC(=N)N)NC(=O)[C@H](CCCNC(=N)N)NC(=O)[C@H](CC(N)=O)NC(=O)[C@H](CCC(N)=O)NC(=O)[C@H](Cc1ccccc1)NC(=O)[C@H](Cc1c[nH]c2ccccc12)NC(=O)[C@@H](NC(=O)[C@H](CCCCN)NC(=O)[C@@H](NC(=O)[C@H](CCC(N)=O)NC(=O)[C@@H](N)CCCNC(=N)N)[C@@H](C)CC)[C@@H](C)CC)C(=O)NCC(=O)N[C@@H](CC(N)=O)C(=O)N[C@@H](CO)C(=O)N[C@@H](Cc1ccc(O)cc1)C(=O)N[C@@H](Cc1ccccc1)C(=O)N[C@@H](CCCCN)C(=O)O` [Antp K13R-TPR] (H-RQIKIWFQNRRMRWKKKAYARIGNSYFK-OH; N-terminus and C-terminus assumed), the “effect compared with the wild-type protein (summary of mutations)” value with cancer cells is “effect similar to that of the wild-type protein”. In addition, in the test on Caki-1, the “killing effect compared with the wild-type peptide” value is “stronger than that of the wild-type peptide”, the “Anti-cancer activity (% relative to wild-type peptide)” value was determined as 108.64% and the “Decrease in cell survival rate (% relative to wild-type peptide)” value (“Decrease … (% relative to wild-type peptide)” below) was determined as 360.96%.
Turning to `CC[C@H](C)[C@H](NC(=O)[C@H](CCCNC(=N)N)NC(=O)[C@H](C)NC(=O)[C@H](Cc1ccc(O)cc1)NC(=O)[C@H](C)NC(=O)[C@H](CCCCN)NC(=O)[C@H](CCCCN)NC(=O)[C@H](CCCCN)NC(=O)[C@H](Cc1c[nH]c2ccccc12)NC(=O)[C@H](CCCCN)NC(=O)[C@H](CCSC)NC(=O)[C@H](CCCNC(=N)N)NC(=O)[C@H](CCCNC(=N)N)NC(=O)[C@H](CC(N)=O)NC(=O)[C@H](CCC(N)=O)NC(=O)[C@H](Cc1ccccc1)NC(=O)[C@H](Cc1c[nH]c2ccccc12)NC(=O)[C@@H](NC(=O)[C@H](CCCCN)NC(=O)[C@@H](NC(=O)[C@H](CCC(N)=O)NC(=O)[C@@H](N)CCCCN)[C@@H](C)CC)[C@@H](C)CC)C(=O)NCC(=O)N[C@@H](CC(N)=O)C(=O)N[C@@H](CO)C(=O)N[C@@H](Cc1ccc(O)cc1)C(=O)N[C@@H](Cc1ccccc1)C(=O)N[C@@H](CCCCN)C(=O)O` [Antp-R1K-TPR] (H-KQIKIWFQNRRMKWKKKAYARIGNSYFK-OH; N-terminus and C-terminus assumed), the “effect compared with the wild-type protein (summary of mutations)” value in the test with cancer cells is listed as “effective but with an effect lower than the wild-type protein”. Besides, in the test on Caki-1, the “Anti-cancer activity (% relative to wild-type peptide)” value was found to be 64.10% and the “Decrease … (% relative to wild-type peptide)” value is reported as 24.98%.
As to `CC[C@H](C)[C@H](NC(=O)[C@H](CCCNC(=N)N)NC(=O)[C@H](C)NC(=O)[C@H](Cc1ccc(O)cc1)NC(=O)[C@H](C)NC(=O)[C@H](CCCCN)NC(=O)[C@H](CCCCN)NC(=O)[C@H](CCCCN)NC(=O)[C@H](Cc1c[nH]c2ccccc12)NC(=O)[C@H](CCCCN)NC(=O)[C@H](CCSC)NC(=O)[C@H](CCCCN)NC(=O)[C@H](CCCNC(=N)N)NC(=O)[C@H](CC(N)=O)NC(=O)[C@H](CCC(N)=O)NC(=O)[C@H](Cc1ccccc1)NC(=O)[C@H](Cc1c[nH]c2ccccc12)NC(=O)[C@@H](NC(=O)[C@H](CCCCN)NC(=O)[C@@H](NC(=O)[C@H](CCC(N)=O)NC(=O)[C@@H](N)CCCNC(=N)N)[C@@H](C)CC)[C@@H](C)CC)C(=O)NCC(=O)N[C@@H](CC(N)=O)C(=O)N[C@@H](CO)C(=O)N[C@@H](Cc1ccc(O)cc1)C(=O)N[C@@H](Cc1ccccc1)C(=O)N[C@@H](CCCCN)C(=O)O` [Antp R11K-TPR] (H-RQIKIWFQNRKMKWKKKAYARIGNSYFK-OH; N-terminus and C-terminus assumed), the “effect compared with the wild-type protein (summary of mutations)” value in the test on cancer cells is “effect similar to that of the wild-type protein”. Moreover, in the test with Caki-1, the “killing effect compared with the wild-type peptide” value is “stronger than that of the wild-type peptide”, the “Anti-cancer activity (% relative to wild-type peptide)” value came to 104.39% and the “Decrease … (% relative to wild-type peptide)” value is 158.09%.
The corresponding values for `CC[C@H](C)[C@H](NC(=O)[C@H](CCCNC(=N)N)NC(=O)[C@H](C)NC(=O)[C@H](Cc1ccc(O)cc1)NC(=O)[C@H](C)NC(=O)[C@H](CCCCN)NC(=O)[C@H](CCCCN)NC(=O)[C@H](CCCCN)NC(=O)[C@H](Cc1c[nH]c2ccccc12)NC(=O)[C@H](CCCCN)NC(=O)[C@H](CCSC)NC(=O)[C@H](CCCNC(=N)N)NC(=O)[C@H](CCCCN)NC(=O)[C@H](CC(N)=O)NC(=O)[C@H](CCC(N)=O)NC(=O)[C@H](Cc1ccccc1)NC(=O)[C@H](Cc1c[nH]c2ccccc12)NC(=O)[C@@H](NC(=O)[C@H](CCCCN)NC(=O)[C@@H](NC(=O)[C@H](CCC(N)=O)NC(=O)[C@@H](N)CCCNC(=N)N)[C@@H](C)CC)[C@@H](C)CC)C(=O)NCC(=O)N[C@@H](CC(N)=O)C(=O)N[C@@H](CO)C(=O)N[C@@H](Cc1ccc(O)cc1)C(=O)N[C@@H](Cc1ccccc1)C(=O)N[C@@H](CCCCN)C(=O)O` [Antp R10K-TPR] (H-RQIKIWFQNKRMKWKKKAYARIGNSYFK-OH; N-terminus and C-terminus assumed) are “effect similar to that of the wild-type protein”, “stronger than that of the wild-type peptide”, 110.30% and 727.03%.
For `CC[C@H](C)[C@H](NC(=O)[C@H](CCCNC(=N)N)NC(=O)[C@H](C)NC(=O)[C@H](Cc1ccc(O)cc1)NC(=O)[C@H](C)NC(=O)[C@H](CCCCN)NC(=O)[C@H](CCCNC(=N)N)NC(=O)[C@H](CCCCN)NC(=O)[C@H](Cc1c[nH]c2ccccc12)NC(=O)[C@H](CCCCN)NC(=O)[C@H](CCSC)NC(=O)[C@H](CCCNC(=N)N)NC(=O)[C@H](CCCNC(=N)N)NC(=O)[C@H](CC(N)=O)NC(=O)[C@H](CCC(N)=O)NC(=O)[C@H](Cc1ccccc1)NC(=O)[C@H](Cc1c[nH]c2ccccc12)NC(=O)[C@@H](NC(=O)[C@H](CCCCN)NC(=O)[C@@H](NC(=O)[C@H](CCC(N)=O)NC(=O)[C@@H](N)CCCNC(=N)N)[C@@H](C)CC)[C@@H](C)CC)C(=O)NCC(=O)N[C@@H](CC(N)=O)C(=O)N[C@@H](CO)C(=O)N[C@@H](Cc1ccc(O)cc1)C(=O)N[C@@H](Cc1ccccc1)C(=O)N[C@@H](CCCCN)C(=O)O` [Antp K16R-TPR] (H-RQIKIWFQNRRMKWKRKAYARIGNSYFK-OH; N-terminus and C-terminus assumed), the “effect compared with the wild-type protein (summary of mutations)” value in the test with cancer cells is “effect higher than the wild-type protein”. Moreover, in the test with Caki-1, the “killing effect compared with the wild-type peptide” value is reported as “stronger than that of the wild-type peptide”, the “Anti-cancer activity (% relative to wild-type peptide)” value was found to be 110.26% and the “Decrease … (% relative to wild-type peptide)” value is 709.01%.
Regarding `CC[C@H](C)[C@H](NC(=O)[C@H](CCCNC(=N)N)NC(=O)[C@H](C)NC(=O)[C@H](Cc1ccc(O)cc1)NC(=O)[C@H](C)NC(=O)[C@H](CCCCN)NC(=O)[C@H](CCCCN)NC(=O)[C@H](CCCCN)NC(=O)[C@H](Cc1c[nH]c2ccccc12)NC(=O)[C@H](CCCCN)NC(=O)[C@H](CCSC)NC(=O)[C@H](CCCNC(=N)N)NC(=O)[C@H](CCCNC(=N)N)NC(=O)[C@H](CCC(N)=O)NC(=O)[C@H](CCC(N)=O)NC(=O)[C@H](Cc1ccccc1)NC(=O)[C@H](Cc1c[nH]c2ccccc12)NC(=O)[C@@H](NC(=O)[C@H](CCCCN)NC(=O)[C@@H](NC(=O)[C@H](CCC(N)=O)NC(=O)[C@@H](N)CCCNC(=N)N)[C@@H](C)CC)[C@@H](C)CC)C(=O)NCC(=O)N[C@@H](CC(N)=O)C(=O)N[C@@H](CO)C(=O)N[C@@H](Cc1ccc(O)cc1)C(=O)N[C@@H](Cc1ccccc1)C(=O)N[C@@H](CCCCN)C(=O)O` [Antp N9Q-TPR] (H-RQIKIWFQQRRMKWKKKAYARIGNSYFK-OH; N-terminus and C-terminus assumed), the “effect compared with the wild-type protein (summary of mutations)” value in the test with cancer cells was “effect higher than the wild-type protein”. Moreover, in the test on Caki-1, the “killing effect compared with the wild-type peptide” value is on record as “stronger than that of the wild-type peptide”, the “Anti-cancer activity (% relative to wild-type peptide)” value stood at 110.59% and the “Decrease … (% relative to wild-type peptide)” value is given as 881.03%.

The values above are taken from US8546320B2, “Hsp9O-targeted anti-cancer chimeric peptide” (Kyoto University, priority 2008, dated 2013).
